Data as given in publication PMC9697349, “Mouse Pharmacokinetics and In Vitro Metabolism of SH-11037 and SH-11008, Synthetic Homoisoflavonoids for Retinal Neovascularization” (Pharmaceutics, 2022).

Experiments:
[1] = Mouse pharmacokinetics, single p.o. dose; format: in vivo; settings: mice
Procedure: Pharmacokinetic studies were performed with male ICR mice (8 weeks old, 30~35 g) purchased from Koatech Co. (Kyunggi, Korea) as reported previously. Test compounds were dissolved at 1 mg/mL in DMA/Tween 80/20% aqueous HPβCD (10/10/80 vol%) to prepare the dosing solutions. SH-11037 was administered by oral (p.o.) gavage at a dose of 10 mg/kg and a dose volume of 10 mL/kg (equimolar to 6 mg/kg of SH-11008) or intravenously (i.v.) via tail vein injection at a dose of 5 mg/kg and a dose volume of 5 mL/kg (equimolar to 3 mg/kg of SH-11008), respectively. […] Plasma samples were analyzed as described below in Section 2.6.1.
Calibration standards and quality control (QC) samples were prepared by spiking 15 μL of blank plasma with 5 μL of analyte working solution prepared in 50 vol% aqueous CH3CN. […] The lower limit of quantitation of SH-11037 and SH-11008 were 0.24 and 0.48 ng/mL, respectively, with a signal-to-noise ratio based on root mean square noise > 10. […] The precision and accuracy of the analytical method were evaluated with the QC samples prepared in triplicate at 5, 250, and 400 ng/mL for both of SH-11037 and SH-11008: the coefficient of variation (%CV) and the relative error (%RE) were in the ranges of −21.23~5.72% and 1.47~12.30% for SH-11037 and −22.85~4.96% and 1.2~13.8% for SH-11008, respectively. […]

[2] = Mouse pharmacokinetics, single i.v. dose; format: in vivo; settings: plasma, iv, single i.v. dose of SH-11008 3 mg/kg, male ICR mice
Procedure: Pharmacokinetic studies were performed with male ICR mice (8 weeks old, 30~35 g) purchased from Koatech Co. (Kyunggi, Korea) as reported previously. Test compounds were dissolved at 1 mg/mL in DMA/Tween 80/20% aqueous HPβCD (10/10/80 vol%) to prepare the dosing solutions. SH-11037 was administered by oral (p.o.) gavage at a dose of 10 mg/kg and a dose volume of 10 mL/kg (equimolar to 6 mg/kg of SH-11008) or intravenously (i.v.) via tail vein injection at a dose of 5 mg/kg and a dose volume of 5 mL/kg (equimolar to 3 mg/kg of SH-11008), respectively. SH-11008 was administered p.o. at a dose of 6 mg/kg and a dose volume of 6 mL/kg or i.v. at a dose of 3 mg/kg and a dose volume of 3 mL/kg, respectively. Plasma samples were analyzed as described below in Section 2.6.1.
Calibration standards and quality control (QC) samples were prepared by spiking 15 μL of blank plasma with 5 μL of analyte working solution prepared in 50 vol% aqueous CH3CN. For sample preparation, 15 μL aliquots of plasma samples combined with 5 μL of 50 vol% aqueous CH3CN were mixed with 3 volumes of ice-cold CH3CN containing glipizide (500 ng/mL) as the IS. The mixture was vortexed, sonicated, and centrifuged at 3000× g for 20 min. The supernatant was then mixed with the same volume of HPLC grade water before analysis. Sample analyses were conducted using Agilent 1290 Infinity HPLC system coupled to Agilent 6460 Triple Quadrupole LC-MS/MS system equipped with Jet Stream ESI ion source (Agilent Technologies Korea, Seoul, Korea). Chromatographic separation was performed on an Agilent Eclipse Plus C18 column (2.1 × 100 mm, 3.5 μm) with a Phenomenex Security Guard C18 guard column (4 × 20 mm) maintained at 40 °C. The mobile phase consisted of 0.1% formic acid in deionized water (A) and 0.1% formic acid in CH3CN (B): 0~2 min 5% B, 2~3 min to 95% B, and 3~6.5 min 95% B. Total run time including a 3 min equilibration time was 9.5 min. The flow rate was 0.45 mL/min. The injection volume was 5 µL. Detection of the analyte ions was performed in the positive multiple reaction monitoring (MRM) mode, with the following mass transitions (precursor > product): m/z 644 > 588, 397 > 367, and 446 > 321 for SH-11037, SH-11008 and IS, respectively. […] The lower limit of quantitation of SH-11037 and SH-11008 were 0.24 and 0.48 ng/mL, respectively, with a signal-to-noise ratio based on root mean square noise > 10. The calibration curves were linear in the range of 0.24–500 ng/mL (r^2 > 0.997) for SH-11037 and 0.48–500 ng/mL (r^2 > 0.998) for SH-11008, respectively. The precision and accuracy of the analytical method were evaluated with the QC samples prepared in triplicate at 5, 250, and 400 ng/mL for both of SH-11037 and SH-11008: the coefficient of variation (%CV) and the relative error (%RE) were in the ranges of −21.23~5.72% and 1.47~12.30% for SH-11037 and −22.85~4.96% and 1.2~13.8% for SH-11008, respectively. Extraction recovery, matrix effect, and process efficiency were in the ranges of 91.8~107.1%, 86.3~99.9%, and 88.8~100.8% for SH-11037 and 88.9~103.8%, 88.9~100.0%, and 80.0~97.4% for SH-11008, respectively. Quantitative analysis data were obtained with Agilent Mass Hunter Quantitative Analysis QQQ (ver. B.05.00) software.
Pharmacokinetic parameters were calculated by noncompartmental analysis of plasma concentration versus time profiles using PKSolver. The scaling factors of mice and human, half-life (t1/2), intrinsic clearance (CLint), hepatic clearance (CLH), and hepatic extraction ratio (EH) were from the in vitro studies as described previously. […] The fraction of parent drug converted to the metabolite (fm) was calculated as follows:fm (%) = (AUC(m) × CL(m))/D × MWparent/MWmetabolite × 100,(1) where D is dose of the parent drug, AUC(m) is area under the curve for the metabolite after a dose of parent drug, CL(m) is CL of metabolite, and MW is molecular weight.

[3] = tested on: human microvascular retinal endothelial cell proliferation; set-up: method as in PMID 26035340; settings: less potent than SH-11037; cited from earlier work

Cmax [2] [µg/mL]	Tmax [2] [min]	clearance [2] [L/h/kg]	half-life ([2]; n = 3, read-out: t1/2 of SH-11008) [min]	AUC(0-inf) ([2]; read-out: AUCinf of SH-11008 (converted)) [µg·h/mL]	AUC(0-t) ([2]; read-out: AUClast of SH-11008 (converted)) [µg·h/mL]	Vd ([2]; read-out: Vss) [L/kg]	plasma levels of SH-11008 ([1]; after single p.o. dose of SH-11008 6 mg/kg, BQL) [µg/mL]	Structure (SMILES)	plasma level of SH-11037 ([1]; throughout the time course after single p.o. dose of SH-11037 10 mg/kg)	inhibitory activity on cell proliferation [3]
–	–	–	–	–	–	–	–	COc1ccc(CC2COc3cc(OC)c(OC)c(OC)c3C2=O)cc1OC(=O)[C@H](Cc1ccccc1)NC(=O)OC(C)(C)C (stereo partly shown) [SH-11037]	BQL	–
0.77 ± 1.16	5	12.6 ± 1.03	3.5 ± 0.5	0.239	0.239	0.5 ± 0.1	< 0.00048	COc1ccc(CC2COc3cc(OC)c(OC)c(OC)c3C2=O)cc1O (stereo not shown) [SH-11008]	–	good inhibitory activity
